These results are taken from patent US7304077B2, “Chemical compounds” (AstraZeneca AB, priority 2001, dated 2007).

The term melting point denotes the temperature, or range, at which the solid turns liquid. Regarding `COc1cccc(C(=O)N(C)CCN2CCC(Oc3ccc(F)c(F)c3)CC2)c1.Cl`, the melting point is 218 °C.

Molecule `CS(=O)(=O)c1cccc(C(=O)NCCN2CCC(Oc3ccc(Cl)c(Cl)c3)CC2)c1.Cl` returned a melting point of 219 °C.

For `CS(=O)(=O)c1cccc(C(=O)NCCCN2CCC(Oc3ccc(Cl)c(Cl)c3)CC2)c1.Cl`, the melting point was 212 °C.

Molecule `CS(=O)(=O)Cc1cccc(C(=O)NCCN2CCC(Oc3ccc(Cl)c(Cl)c3)CC2)c1` [Compound 5 of Table I, N-{2-[4-(3,4-dichlorophenoxy)-1-piperidinyl]ethyl}-3-[(methylsulfonyl)methyl]benzamide] registered a melting point of 112 to 114 °C.

In turn, `CS(=O)(=O)Cc1ccc(C(=O)NCCN2CCC(Oc3ccc(Cl)c(Cl)c3)CC2)cc1` [Compound 7 of Table I, N-{2-[4-(3,4-dichlorophenoxy)-1-piperidinyl]ethyl}-4-[(methylsulfonyl)methyl]benzamide] came in with a melting point of 179 to 181 °C.

`CS(=O)(=O)Nc1cccc(C(=O)NCCN2CCC(Oc3ccc(Cl)c(Cl)c3)CC2)c1` [Compound 24 of Table I, N-{2-[4(3,4-dichlorophenoxy)-1-piperidinyl]ethyl}-3-[(methylsulfonyl)amino]benzamide] yielded a melting point of 150 to 151 °C.

Turning to `O=C(Cn1nnc(N2CCCC2)n1)NCCN1CCC(Oc2ccc(Cl)c(Cl)c2)CC1` [Compound 34 of Table II, N-{2-[4-(3,4-dichlorophenoxy)-1-piperidinyl]ethyl}-2-[5-(1-pyrrolidinyl)-2H-tetraazol-2-yl]acetamide], the melting point was in the range of 114 to 116 °C.

The molecule `NS(=O)(=O)c1cccc(C(=O)NCCN2CCC(Oc3ccc(Cl)c(Cl)c3)CC2)c1` [Example 22, 3-(aminosulfonyl)-N-{2-[4-(3,4-dichlorophenoxy)-1-piperidinyl]ethyl}benzamide] returned a melting point of 168 to 169 °C.

`CCn1cc(C(=O)NCCN2CCC(Oc3ccc(Cl)c(Cl)c3)CC2)c(=O)c2ccc(C)nc21` [Example 23, N-{2-[4-(3,4-dichlorophenoxy)-1-piperidinyl]ethyl}-1-ethyl-7-methyl-4-oxo-1,4-dihydro[1,8]naphthyridine-3-carboxamide] gave a melting point of 169 to 217 °C.

For the molecule `CS(=O)(=O)c1ccc(C(=O)NCCN2CCC(Oc3ccc(Cl)c(Cl)c3)CC2)s1` [Example 27, N-{2-[4-(3,4-dichlorophenoxy)-1-piperidinyl]ethyl}-5-(methylsulfonyl)-2-thiophenecarboxamide], the melting point was in the range of 142 to 143 °C.

As to `O=C(NCCN1CCC(Oc2ccc(Cl)c(Cl)c2)CC1)c1ccc(-n2cccn2)nc1` [Example 28, N-{2-[4-(3,4-dichlorophenoxy)-1-piperidinyl]ethyl}-6-(1H-pyrazol-1-yl)nicotinamide], the melting point is 154 to 155 °C.

In the case of `CS(=O)(=O)c1ccc(C(=O)NCCN2CCC(Oc3ccc(Cl)c(Cl)c3)CC2)cc1` [Example 29, N-{2-[4-(3,4-dichlorophenoxy)-1-piperidinyl]ethyl}-4-(methylsulfonyl)benzamide], the melting point fell in the range of 100 to 101 °C.

Molecule `O=C(NCCN1CCC(Oc2ccc(Cl)c(Cl)c2)CC1)c1cn2ccccc2n1` [Example 30, N-{2-[4-(3,4-dichlorophenoxy)-1-piperidinyl]ethyl}imidazo[1,2-a]pyridine-2-carboxamide] returned a melting point of 150 to 151 °C.

`O=C(NCCN1CCC(Oc2ccc(Cl)c(Cl)c2)CC1)c1nnc(Nc2ccccc2Cl)o1` [Example 31, 5-(2-chloroanilino)-N-{2-[4-(3,4-dichlorophenoxy)-1-piperidinyl]ethyl}-1,3,4-oxadiazole-2-carboxamide]: the melting point was in the range of 161 to 162 °C.

In turn, `O=C(NCCN1CCC(Oc2ccc(F)cc2Cl)CC1)c1ccc(-n2cccn2)nc1` [Example 32, N-{2-[4-(2-chloro-4-fluorophenoxy)-1-piperidinyl]ethyl}-6-(1H-pyrazol-1-yl)nicotinamide] registered a melting point of 109 to 110 °C.

Molecule `CS(=O)(=O)c1cccc(C(=O)NCCN2CCC(Oc3ccc(F)cc3Cl)CC2)c1` [Example 33, N-{2-[4-(2-chloro-4-fluorophenoxy)-1-piperidinyl]ethyl}-3-(methylsulfonyl)benzamide] yielded a melting point of 50 to 51 °C.

In the case of `Cc1c(Cl)ccc(OC2CCN(CCNC(=O)c3ccc(S(C)(=O)=O)cc3)CC2)c1Cl` [Example 34, N-{2-[4-(2,4-dichloro-3-methylphenoxy)-1-piperidinyl]ethyl}-4-(methylsulfonyl)benzamide], the melting point lay within 171 to 172 °C.

`Cc1c(Cl)ccc(OC2CCN(CCNC(=O)c3ccc(S(C)(=O)=O)s3)CC2)c1Cl` [Example 35, N-{2-[4-(2,4-dichloro-3-methylphenoxy)-1-piperidinyl]ethyl}-5-(methylsulfonyl)-2-thiophenecarboxamide] registered a melting point of 177 to 178 °C.

In the case of `Cc1c(Cl)ccc(OC2CCN(CCNC(=O)c3ccccc3S(C)(=O)=O)CC2)c1Cl` [Example 36, N-{2-[4-(2,4-dichloro-3-methylphenoxy)-1-piperidinyl]ethyl}-2-(methylsulfonyl)benzamide], the melting point fell in the range of 71 to 72 °C.

In turn, `Cc1cc(OC2CCN(CCNC(=O)c3ccc(S(C)(=O)=O)cc3)CC2)ccc1Cl` [Example 37, N-{2-[4-(4-chloro-3-methylphenoxy)-1-piperidinyl]ethyl}-4-(methylsulfonyl)benzamide] registered a melting point of 123 to 124 °C.

The molecule `Cc1cc(OC2CCN(CCNC(=O)c3ccc(-n4cccn4)nc3)CC2)ccc1Cl` [Example 38, N-{2-[4-(4-chloro-3-methylphenoxy)-1-piperidinyl]ethyl}-6-(1H-pyrazol-1-yl)nicotinamide] returned a melting point of 183 to 184 °C.

Take `NS(=O)(=O)c1cc(C(=O)NCCN2CCC(Oc3ccc(F)c(F)c3)CC2)ccc1Cl` [Example 40, 3-(aminosulfonyl)-4-chloro-N-{2-[4-(3,4-difluorophenoxy)-1-piperidinyl]ethyl}benzamide]: the melting point lay within 80 to 81 °C.

`N#Cc1ccccc1C(=O)NCCN1CCC(Oc2ccc(F)c(F)c2)CC1` [Example 41, 2-cyano-N-{2-[4-(3,4-difluorophenoxy)-1-piperidinyl]ethyl}benzamide] came in with a melting point of 146 to 147 °C.

Regarding `CS(=O)(=O)c1ccc(C(=O)NCCN2CCC(Oc3ccc(F)c(F)c3)CC2)c(Cl)c1` [Example 42, 2-chloro-N-{2-[4-(3,4-difluorophenoxy)-1-piperidinyl]ethyl}-4-(methylsulfonyl)benzamide], the melting point was 108 to 109 °C.

Take `N#Cc1cccc(C(=O)NCCN2CCC(Oc3ccc(F)c(F)c3)CC2)c1` [Example 43, 3-cyano-N-{2-[4-(3,4-difluorophenoxy)-1-piperidinyl]ethyl}benzamide]: the melting point is 106 to 107 °C.

Regarding `CS(=O)(=O)Cc1ccc(C(=O)NCCN2CCC(Oc3ccc(F)c(F)c3)CC2)cc1` [Example 44, N-{2-[4-(3,4-difluorophenoxy)-1-piperidinyl]ethyl}-4-[(methylsulfonyl)methyl]benzamide], the melting point is 115 to 116 °C.
